“Also recorded” adds a separate entry of the source.
Experiments:
Type in all cases: cell-based
IGF-1 = IGF-1 production by ELISA, cultured human chondrocytes; conditions: for IGF-1 production: cultured chondrocytes treated with compound, presence and absence of IL-1; for IGF-1 production compared to IL-1 alone: human chondrocytes in culture, 5 or 50 ug/mL (FIGS. 5, 6)
Description: Chondrocytes were prepared by the enzymatic digestion of knee cartilage, as previously described. (Ahmed S et al., J Nutr 2005 135:20962102). Chondrocytes were plated (1×10^6 cells/mL) in 35 mm culture dishes (BD, Mountain View, Calif.) and cultured in DMEM:F12 (Mediatech, Herndon, Va.) supplemented with 10% FCS and 1% Penn:Strep for 72 hrs at 37° C. and 5% CO2 in a tissue culture incubator. Chondrocytes were serum starved overnight and then exposed to either kuromanin or cyanidin chloride (5 or 50 ug/mL), progrado (2 or 10 ug/mL) alone or in combination in fresh serum-free medium for 1 hr prior to the addition of IL-β.
Human IGF-1 label in chondrocytes culture or cartilage explant media was quantified using a commercially available Human IGF-1 ELISA kit (R& D Systems) per manufacturer's directions.

human cartilage explants = assay: Cartilage breakdown as determined by GAG release in human cartilage explants; conditions: for GAG release under basal conditions: high dose (50 ug/mL) alone, no IL-1; for IL-1 induced GAG release (chondroprotection): human cartilage explants, IL-1 plus test agent 5 or 50 ug/mL, 72 hours
From the text: Human osteoarthritic cartilage samples were procured through the Tissue Procurement Facility of the University Hospitals of Cleveland/Case Western Reserve University and with prior approval of the IRB of University Hospitals of Cleveland. The cartilage samples were obtained from patients undergoing total anthroplasty of the knee due to degenerative joint diseases. In all cases care was taken to use only “macroscopically normal” cartilage samples. No samples were exposed to radiation solely for the purpose of these studies but almost all patients will have received X-rays as part of their clinical presentation during the execution of care. The same donor tissue was not used in all experiments but untreated controls were included in all protocols.
Full thickness cartilage slices (20-25 mg) were dissected from the cartilage using a sterile scalpel blade. Four to five cartilage pieces that were approximately equal in size and weight were transferred to each well of a 24-well, flat bottom plate (Nuns, Denmark) containing DMEM:F12 (1:1) supplemented with antibiotics and 10% FCS and cultured for 24 hours. Subsequently the cartilage explants were cultured overnight in serum free media. The cartilage explants were treated with IL-β alone or with IL-β positive test agents for 72 hours in serum free media. Explants cultured in the absence of IL-β or test agents were used as controls. Additionally, the actions of kuromanin or cyanidin chloride were examined independently of IL-β exposure (5 ng/mL). Where appropriate, explants were exposed to test agents 15 minutes prior to the treatment with IL-β. Total glycosaminoglycan present in the culture supernatant was estimated as described below.
At the end of culture period, the culture medium was collected from each group. A 50 uL aliquot of collected supernatant from each sample was utilized to estimate the total glycosaminoglycan (GAG) concentration by a colorimetric method employing a DMMB as previously described (Miller M J S et al., BMC Complementary and Alternative Med 2006 6; 13). Color intensity was read spectrophotometrically at 535 nm using the Lambda 25 spectrophotometer (Perkin-Elmer, CT) and the values were derived from a standard curve prepared using different concentrations of chondroitin sulfate. Results are expressed as micrograms of glycosaminoglycan released per mg of cartilage tissue.

[1] = system: human osteoarthritic cartilage explants; assay: Matrix synthesis (35S uptake) in human osteoarthritic cartilage explants
Description: Bovine cartilage explants (full thickness, 6 mm in diameter) were harvested from fresh femoral condyles. Human osteochondral plugs were harvested using 6 mm osteochondral grafting donor tool (Arthrez 1981-06S, Naples, Fla.) from femoral condyles retrieved from total knee arthroplasty surgery that had been stored in DMEM at 20 degrees C. for less than 24 hours. Full-thickness cartilage explants were cut from the subchondral bone. Each of the 6 mm cartilage disks were divided into 4 equal quadrants. Each quadrant was placed in a different experimental group. This allowed for a paired comparison and controlled for differences in grade of arthritis, thickness of cartilage, cell density, etc. The explants were washed 4-5 times with DMEM with 10% calf serum and were allowed to stabilize for 24 hours in a tissue culture incubator. Explants were then serum starved (0.1% calf serum) for 24 hours prior to commencement of cyanidin chloride treatment.
3 mL fresh media with 20 uCi/mL of ^35S-labeled sodium sulfate (NEX0414 Perkin Elmer, Boston, Mass.) (DMEM with 10% CS) was added to each of the explants along with 30 uL of 50 mM stock cyanidin chloride (MW 322.7 g/mole) solution (diluted in DMSO) (Chromadex Inc., Irvine, Calif.) to give the final cyanidin chloride concentration of (200 or 500 uM) in culture. Explants were subjected to cyanidin chloride treatment for 48 hours.
Radioactive media was aspirated after 48 hours and explants were washed in ice-cold 1×PBS for 10 minutes×3. Each cartilage explant quadrant was blotted dry and was placed in 500 uL of 2 mg/mL Proteinase K (Fisher Scientific, Fair Lawn, N.J.) in TE Buffer solution (10 mM Tris, 1 mM EDTA) and was allowed to rotate at 57 degrees C. for 24 hours in a hybridization oven until completely dissolved. Quantification of ^35S-labeled proteoglycans complexed to alcian blue by rapid filtration in multiwall plates was adopted and modified from Masuda et al Anal. Biochem 1994; 217:167-75. 75 uL of dilution buffer (50 mM Sodium Acetate pH^− 5.8. 0.5% Triton X-100) was added to each well of a 96 well plate (Millipore Multiscreen 96-well filtration system, Millipore, Billerica, Mass.) 25 uL of each digested cartilage explant sample was then loaded followed by 150 uL of 0.2% alcian blue solution (Alcian Blue 8GX electrophoresis grade, Sigma-Aldrich Inc., St. Louis Mo.) and was allowed to rotate for 1 hour at room temperature. The 96-well plate was then placed over a vacuum-manifold to aspirate the contents of the wells through the screen. The 3×200 uL vacuum washes with wash buffer (50 mM sodium acetate pI-I 5.8, 100 mM sodium sulfate, 50 mM MgCl2) were then performed. The 96-well filtration plate was then completely dried at 57 degrees C. for 5 minutes in a hybridization oven and was exposed to storage phosphor screen for 24 hours (Packard Instrument Company Inc., Meriden. Conn.). Phosphorimaging with Cyclone model A431200 (Packard Instrument Company Inc. Meriden, Conn.) was performed to quantify ^35S uptake by proteoglycans. ^35S uptake by proteoglycans in cartilage explants was normalized to DNA by Quant-iT ds DNA Assay Kit (Invitrogen Inc., Carlsbad Calif.).
Reported clinical experiments indicate that 10% dextrose injected in the joint can have a therapeutic effect on osteoarthritis. To test this effect, human osteoarthritic cartilage explants (Grade II) were treated with glucose at physiologic (0.45%) or were treated with supraphysiologic (2.5% and 5%) concentrations with 500 uM cyanidin chloride.

| SMILES | IGF-1 production (media levels) (IGF-1; IL-1 with high dose 50 ug/mL) | IGF-1 production (media levels) (IGF-1; IL-1 with low dose 5 ug/mL) | IGF-1 production (IGF-1) | IGF-1 production (media levels) (IGF-1; high dose (50 ug/mL) alone) | IGF-1 production compared to IL-1 alone (IGF-1) | GAG release under basal conditions (human cartilage explants) | IL-1 induced GAG release (chondroprotection) (human cartilage explants; listed as CC1) | IL-1 induced GAG release (chondroprotection) (human cartilage explants; listed as cyanidin) | IL-1 induced GAG release (chondroprotection) (human cartilage explants; listed as cyanidin chloride) | synergy of cyanidin and glucose on matrix synthesis ([1]; cyanidin 500 uM combined with glucose) | matrix synthesis (35S uptake) ([1]; human OA Grade II explants, 500 uM at 0.45% glucose) | matrix synthesis (35S uptake) ([1]; human OA grade II-III explants, 500 uM) | IL-1 induced GAG release (chondroprotection) (human cartilage explants) | IL-1 induced GAG release (chondroprotection) (human cartilage explants; listed as KuCl) | matrix synthesis (35S uptake) ([1]; glucose 0.45% (low, physiologic)) | matrix synthesis (35S uptake) ([1]; supraphysiologic glucose (2.5% and 5%)) |
| --- | --- | --- | --- | --- | --- | --- | --- | --- | --- | --- | --- | --- | --- | --- | --- | --- |
| Oc1cc(O)c2cc(O)c(-c3ccc(O)c(O)c3)[o+]c2c1 [Cyanidin chloride] | no restoration of media IFG-1 levels | no restoration of media IFG-1 levels | Reduced production of IGF-1 | reduced IGF-1 production from control values | greater than IL-1 alone when treated with cyanidin alone at high levels and at low levels in combination with IL-1 | not evident | blocked IL-1 induced GAG release | able to prevent GAG (glycosaminoglycan) release compared to control; also recorded: effective chondroprotective agents limiting the degradation of human cartilage against the catabolic effects of IL-1 | chondroprotective; also recorded: blocked | did not have significant synergistic effect | no effect on matrix synthesis | no effect on human OA explants; also recorded: did not increase matrix synthesis in human OA tissue | – | – | – | – |
| OC[C@H]1O[C@@H](Oc2cc3c(O)cc(O)cc3[o+]c2-c2ccc(O)c(O)c2)[C@H](O)[C@@H](O)[C@@H]1O.[Cl-] [Kuromanin chloride] | no effect over IL-1 | restoration of IGF-1 production | Reduced production of IGF-1 | reduced IGF-1 protein levels in the media to a similar level as to that seen with IL-1 | greater than IL-1 alone when treated with kuromanin at high levels and at low levels in combination with 1L-1 | some catabolic effects that may reflect cell toxicity; also recorded: tendency for the high dose of kuromanin to promote GAG release | – | – | – | – | – | – | able to prevent GAG (glycosaminoglycan) release compared to control; also recorded: effective chondroprotective agents limiting the degradation of human cartilage against the catabolic effects of IL-1; also recorded: blocked | blocked IL-1 induced GAG release | – | – |
| O=C[C@H](O)[C@@H](O)[C@H](O)[C@H](O)CO [glucose] | – | – | – | – | – | – | – | – | – | – | – | – | – | – | stimulate matrix synthesis more than higher concentrations of glucose; also recorded: beneficial effect | reduced matrix synthesis; also recorded: suppressed matrix synthesis |

— patent US9987296B2, “Compositions including anthocyanin or anthocyanidin for the prevention or treatment of Articular cartilage-associated conditions” (priority 2008, dated 2018)
